The values below are quoted from earlier work in patent US20050043536A1, “Sulfonamides” (priority 2001, published 2005).

The subject of the data set is rat-isolated aorta.

Regarding `CC(C)[C@H](NC(=O)[C@@H]1CSSC[C@H](NC(=O)[C@H](CC(=O)O)NC(=O)[C@@H]2CCCN2C(=O)[C@@H](NC(=O)[C@@H](N)CCC(=O)O)[C@@H](C)O)C(=O)N[C@@H](Cc2ccccc2)C(=O)N[C@@H](Cc2c[nH]c3ccccc23)C(=O)N[C@@H](CCCCN)C(=O)N[C@@H](Cc2ccc(O)cc2)C(=O)N1)C(=O)O` [Human Urotensin-II], the contractile activity entry was “the most potent contractile agonist identified to date”.
